Experimental data as given in patent US20090285791A1, “Regenerating and enhancing development of muscle tissue” (Sbarro Health Research Organization, Inc., priority 2008, published 2009).

Assays:
C2C12 cells = assay: C2C12 myoblast differentiation in the presence of kinase inhibitor DRB; assay type: cell-based, mouse; details: C2C12 induced to differentiate
Procedure: C2C12 cells were grown in DMEM supplemented with 20% FBS (GM) or with 2% HS (DM).
Immunoprecipitations were performed with anti-MyoD antibody (Santa Cruz, Calif.) followed by the addition of protein A-sepharose. Beads were extensively washed and loading buffer without β-mercaptoethanol was added at 4° C. to work in non-denaturing conditions. Samples were resolved in PAA-Gels and transferred to a Hybond-ECL nitrocellulose (Amersham, IL). The blots were blocked with TBST containing 5% non-fat dry milk. Antibodies specific for cdk9, myogenin, MHC, RNAPolII, P-Serine2-CTD, Desmin and tubulin were used as described in Simone et al., 2002; Giacinti et al., 2006. Anti-rabbit and anti-mouse peroxidase conjugated and ECL detection system (Amersham, IL) were used for detection.
Since cdk9-55 activity, as well as cdk9-42 activity (Shore et al., Gene 307, 175-182, 2003; Liu and Herman, J. Cell. Physiol. 203, 251-260, 2005), could be inhibited by pharmacological blockade, C2C12 cells were induced to differentiate with the kinase specific inhibitor DRB.

cdk9-55 = cdk9-55 (Homo sapiens, UniProt P50750); details: Shore et al. 2003; Liu and Herman 2005; cited from earlier work
Chain of cdk9-55 (P50750 1-489 isoform P50750-2): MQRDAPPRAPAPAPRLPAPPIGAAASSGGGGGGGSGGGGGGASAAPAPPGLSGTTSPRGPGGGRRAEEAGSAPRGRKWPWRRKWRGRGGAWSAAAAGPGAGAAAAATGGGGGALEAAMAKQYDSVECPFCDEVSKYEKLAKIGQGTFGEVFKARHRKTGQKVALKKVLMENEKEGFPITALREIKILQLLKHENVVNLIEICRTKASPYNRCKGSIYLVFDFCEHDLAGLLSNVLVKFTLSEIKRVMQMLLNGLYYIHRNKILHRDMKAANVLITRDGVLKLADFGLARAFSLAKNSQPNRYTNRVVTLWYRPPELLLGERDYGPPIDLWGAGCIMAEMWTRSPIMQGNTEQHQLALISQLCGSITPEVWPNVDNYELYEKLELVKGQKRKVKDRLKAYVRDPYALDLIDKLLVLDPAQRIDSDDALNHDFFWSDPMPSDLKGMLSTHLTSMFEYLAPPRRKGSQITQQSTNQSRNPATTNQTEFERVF
Chain of cdk9-55 (O60563 whole entry partner): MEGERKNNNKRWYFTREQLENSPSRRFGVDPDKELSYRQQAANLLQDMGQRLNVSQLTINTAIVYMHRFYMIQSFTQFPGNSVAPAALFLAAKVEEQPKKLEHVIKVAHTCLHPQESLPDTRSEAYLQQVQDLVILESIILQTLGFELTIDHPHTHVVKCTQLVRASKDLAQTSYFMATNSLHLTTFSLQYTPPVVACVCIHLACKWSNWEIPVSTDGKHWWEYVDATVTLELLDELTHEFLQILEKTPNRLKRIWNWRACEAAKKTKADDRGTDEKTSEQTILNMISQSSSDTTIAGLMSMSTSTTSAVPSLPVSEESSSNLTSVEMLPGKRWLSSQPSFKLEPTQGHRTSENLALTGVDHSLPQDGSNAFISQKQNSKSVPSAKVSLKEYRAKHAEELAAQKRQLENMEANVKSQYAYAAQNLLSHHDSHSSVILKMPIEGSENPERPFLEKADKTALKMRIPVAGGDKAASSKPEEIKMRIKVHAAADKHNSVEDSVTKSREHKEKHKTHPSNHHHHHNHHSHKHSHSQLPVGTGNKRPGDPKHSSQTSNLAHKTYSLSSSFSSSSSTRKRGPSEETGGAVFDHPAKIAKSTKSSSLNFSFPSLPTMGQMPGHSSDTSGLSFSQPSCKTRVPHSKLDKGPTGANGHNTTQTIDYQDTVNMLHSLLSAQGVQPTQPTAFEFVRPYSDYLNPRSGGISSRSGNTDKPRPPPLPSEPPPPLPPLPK

For OC[C@H]1O[C@@H](n2cnc3cc(Cl)c(Cl)cc32)[C@H](O)[C@@H]1O [DRB, 5,6-dichloro-1-β-d-ribofuranosylbenzimidazole], the multinucleated myotubes (C2C12 cells; DRB 100 μM) was “absence of multinucleated myotubes”, the terminal differentiation (C2C12 cells; DRB 100 μM (FIG. 1D, 1E)) was “failed to undergo terminal differentiation” and the MHC levels (C2C12 cells; DRB 100 μM, immunoblot) was “low MHC levels”. For the same molecule, the cdk9-55 kinase activity (cdk9-55) was “specifically inhibited”.
